The record followed here is ChEMBL document CHEMBL1201862, “PubChem BioAssay data set” (2004).

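Each compound was tested at five concentrations against cells in 96-well plates for 48 hours. GI50 marks 50% less growth.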 Calls of active or inactive are those of the source. No stated cut-off is given here; in the data, active = GI50 up to about 1.1 µM and inactive = higher. Bounds are passed on as bounds.

Test systems include A549; DU-145; HOP-62; HT-29; IGROV-1; MCF7; MDA-MB-231; NCI-H522; NCI/ADR-RES; OVCAR-5; OVCAR-8; SK-MEL-28; SK-MEL-5; SK-OV-3; SNB-19; SR; SW-620; U-251; UACC-257; SF-539.
Assay in all cases: inhibition of tumour cell growth, NCI panel, 48 h

As for `O=C(O)/C=C\C(=O)Nc1ccc2c(c1)-c1ccccc1C2`, the GI50 in the assay with A549 is > 100 µM (inactive); in the assay on DU-145, 80.2 µM (inactive); with HOP-62, 81.3 µM (inactive); in the assay on HT-29, > 100 µM (inactive); in the assay on IGROV-1, > 100 µM (inactive); with MCF7, 37.3 µM (inactive). Also, the GI50 in the assay on MDA-MB-231 is > 100 µM (inactive); with NCI-H522 it was 37 µM (inactive); in the assay with NCI/ADR-RES, 56.1 µM (inactive); with OVCAR-5, > 100 µM (inactive); with OVCAR-8 it was 77.4 µM (inactive); in the assay with SK-MEL-28, > 100 µM (inactive). Besides, the GI50 in the assay with SK-MEL-5 is > 100 µM (inactive); in the assay with SK-OV-3, > 100 µM (inactive); in the assay with SNB-19 it was 42.3 µM (inactive); in the assay with SR it was 44.9 µM (inactive); in the assay on SW-620 it was > 100 µM (inactive); in the assay on U-251, 56.2 µM (inactive). For the same compound, the GI50 in the assay on UACC-257 was 98.6 µM (inactive).
Take `CC(=C\c1ccccc1)/C=C(\C#N)C(N)=O`: the GI50 with DU-145, in the assay with HOP-62, in the assay on HT-29, in the assay on IGROV-1, with MCF7 and with MDA-MB-231 was > 10 µM (inactive) in each case. The GI50 in the assay with NCI-H522, in the assay on NCI/ADR-RES, in the assay on OVCAR-5, with OVCAR-8, with SF-539 and with SK-MEL-28 was > 10 µM (inactive) in each case. The GI50 with SK-MEL-5, in the assay on SK-OV-3, with SW-620 and in the assay on U-251 was > 10 µM (inactive) throughout.
With `C=C1C[C@@H](O)[C@@H](Br)C(C)(C)[C@@]12C=CC(O)(CBr)CC2` (stereo partly specified), the GI50 in the assay on A549 was > 100 µM (inactive); in the assay on DU-145, > 100 µM (inactive); in the assay on HOP-62 it was > 100 µM (inactive); with HT-29 it was 47.6 µM (inactive); in the assay with IGROV-1, 89.3 µM (inactive); with MCF7, 59.6 µM (inactive). The GI50 was 29 µM (inactive) with MDA-MB-231; 62.4 µM (inactive) in the assay with NCI-H522; 0.0191 µM (active) in the assay with NCI/ADR-RES; 13.7 µM (inactive) in the assay on OVCAR-5; > 100 µM (inactive) in the assay on OVCAR-8; > 100 µM (inactive) with SK-MEL-28. The GI50 is 76.7 µM (inactive) in the assay with SK-MEL-5; 88.9 µM (inactive) with SNB-19; 14.8 µM (inactive) with SR; > 100 µM (inactive) in the assay on SW-620; 63.4 µM (inactive) with U-251; > 100 µM (inactive) in the assay on UACC-257.
`O=C(O)C1CC(C2CCCCN2)CN2CCCCC12` (stereo unspecified): the GI50 in the assay on A549, with DU-145, in the assay on HOP-62, with HT-29, with IGROV-1 and in the assay on MCF7 was > 100 µM (inactive) each time. Besides, the GI50 in the assay on MDA-MB-231 is > 100 µM (inactive); in the assay with NCI/ADR-RES it was > 100 µM (inactive); in the assay with OVCAR-5 it was > 100 µM (inactive); with OVCAR-8, > 100 µM (inactive); in the assay with SF-539, 57.5 µM (inactive); in the assay on SK-MEL-28 it was > 100 µM (inactive). Also, the GI50 in the assay on SK-MEL-5, in the assay with SK-OV-3, in the assay with SNB-19, in the assay on SR, in the assay with SW-620 and in the assay with U-251 was > 100 µM (inactive) in each case. Also, in the assay with UACC-257, the GI50 is > 100 µM (inactive).
As for `CC(=O)c1cccn1/C=C(\OC(=O)OC(C)(C)C)c1ccc[nH]1`, the GI50 in the assay with A549 was 60 µM (inactive); in the assay with DU-145 it was 58.9 µM (inactive); with HOP-62, 77.3 µM (inactive); in the assay on IGROV-1, 40.6 µM (inactive); in the assay on MCF7, 76.4 µM (inactive); with MDA-MB-231, 73.8 µM (inactive). In addition, the GI50 was 57 µM (inactive) with NCI-H522; 50.2 µM (inactive) with NCI/ADR-RES; 51.2 µM (inactive) with OVCAR-5; 99.5 µM (inactive) in the assay with OVCAR-8; 96.6 µM (inactive) in the assay on SK-MEL-28; 40.3 µM (inactive) in the assay with SK-MEL-5. The GI50 with SNB-19 is 46.7 µM (inactive); in the assay on SR, 31 µM (inactive); in the assay on SW-620 it was 83.9 µM (inactive); with U-251, 64.4 µM (inactive); with UACC-257 it was > 100 µM (inactive).
On to `O=C(COc1ccc(OCC(=O)N2C(=O)CC(=O)N(c3ccccc3)C2=S)cc1)N1C(=O)CC(=O)N(c2ccccc2)C1=S`, for which the GI50 with A549 is 40.4 µM (inactive); in the assay with DU-145, 55.7 µM (inactive); in the assay on HT-29, 61.2 µM (inactive); in the assay on IGROV-1, 38.7 µM (inactive); in the assay with MCF7, 45.9 µM (inactive); with MDA-MB-231 it was 46.8 µM (inactive). Moreover, the GI50 in the assay with NCI-H522 was 38.1 µM (inactive); in the assay with NCI/ADR-RES it was > 100 µM (inactive); with OVCAR-5, > 100 µM (inactive); with SK-MEL-28, 87.3 µM (inactive); with SK-OV-3, 77.4 µM (inactive); in the assay with SNB-19, 69.7 µM (inactive). Further, the GI50 in the assay on SW-620 is 72.1 µM (inactive); in the assay with U-251, 46.1 µM (inactive); in the assay on UACC-257, 82.2 µM (inactive).
With `O=C(CN1CCOCC1)c1ccc2c(c1)oc(=O)n2CCN1CCOCC1`, the GI50 with DU-145, in the assay on HOP-62, in the assay on HT-29, in the assay with IGROV-1, with MCF7 and in the assay with MDA-MB-231 was > 100 µM (inactive) each time. Also, the GI50 with NCI/ADR-RES, in the assay with OVCAR-5, in the assay on OVCAR-8, in the assay on SF-539, in the assay with SK-MEL-28 and in the assay with SK-MEL-5 was > 100 µM (inactive) each time. Moreover, the GI50 in the assay with SK-OV-3, with SNB-19, in the assay with SR, in the assay on SW-620 and with U-251 was > 100 µM (inactive) throughout.
Consider `O=c1/c(=C/c2ccc(-c3ccc(Cl)cc3Cl)o2)sc2n1[C@@H](c1ccc(Cl)cc1)C=C(c1cc(F)c(Cl)cc1Cl)N=2`, for which the GI50 in the assay on A549 was > 100 µM (inactive); in the assay on DU-145, 65.2 µM (inactive); in the assay on HOP-62, 10.6 µM (inactive); in the assay on HT-29 it was 39.8 µM (inactive); with IGROV-1 it was 33 µM (inactive); in the assay with MCF7, 33.5 µM (inactive). For the same compound, the GI50 with MDA-MB-231 was 23.6 µM (inactive); in the assay on NCI-H522, 84.3 µM (inactive); with NCI/ADR-RES, 50.8 µM (inactive); in the assay with OVCAR-5 it was > 100 µM (inactive); in the assay with OVCAR-8, 45.7 µM (inactive); with SF-539 it was 34.8 µM (inactive). In addition, the GI50 in the assay on SK-MEL-28 was > 100 µM (inactive); with SK-MEL-5, 46.5 µM (inactive); in the assay on SK-OV-3 it was 19.2 µM (inactive); with SNB-19 it was 35.6 µM (inactive); in the assay on SW-620, 33.6 µM (inactive); in the assay with U-251, 31.5 µM (inactive). The GI50 in the assay with UACC-257 is 34.6 µM (inactive).
With `CN(C)CCc1ccnc2nc(-c3ccc4ccccc4c3)cn12`, the GI50 in the assay with A549 was > 100 µM (inactive); in the assay with DU-145, 45.2 µM (inactive); with HOP-62 it was 56.9 µM (inactive); in the assay with HT-29 it was 17.8 µM (inactive); with IGROV-1, 23.9 µM (inactive); with MCF7, 34.7 µM (inactive). Moreover, the GI50 is 28.8 µM (inactive) with MDA-MB-231; 12 µM (inactive) in the assay on NCI-H522; 26.2 µM (inactive) with NCI/ADR-RES; 47.1 µM (inactive) with OVCAR-5; 26.9 µM (inactive) in the assay with OVCAR-8; 45.6 µM (inactive) in the assay with SK-MEL-28. For the same compound, the GI50 in the assay with SK-MEL-5 is 34.7 µM (inactive); in the assay on SK-OV-3, 38.5 µM (inactive); in the assay with SNB-19, 69.2 µM (inactive); in the assay on SR, 57.5 µM (inactive); in the assay with SW-620, 21.4 µM (inactive); in the assay on U-251 it was 38.2 µM (inactive). For the same compound, the GI50 in the assay with UACC-257 is 36.3 µM (inactive).
Regarding `CC(C)C1OC(=O)/C=C/C=C/C=C/C=C/C=C/CC(O)CC(O)CC(O)CC(O)CC(O)CC(O)CC(O)CC(O)/C=C/C1C` (stereo unspecified), the GI50 in the assay with A549, in the assay on DU-145, with HOP-62, in the assay on HT-29, with IGROV-1 and in the assay on MCF7 was > 100 µM (inactive) throughout. For the same compound, the GI50 in the assay on MDA-MB-231, in the assay on NCI/ADR-RES, in the assay with OVCAR-5, with OVCAR-8, in the assay with SF-539 and in the assay with SK-MEL-28 was > 100 µM (inactive) each time. Further, the GI50 with SK-MEL-5, with SNB-19, in the assay on SR, in the assay on SW-620, in the assay on U-251 and with UACC-257 was > 100 µM (inactive) in each case.
Take `Cc1[nH]n(-c2nc3c(c(=O)[nH]2)CCCC3)c(=O)c1CCO`: the GI50 in the assay on A549, with DU-145, in the assay on HOP-62, in the assay on HT-29, in the assay on IGROV-1 and in the assay with MCF7 was > 100 µM (inactive) each time. Also, the GI50 in the assay on MDA-MB-231, in the assay with NCI-H522, with NCI/ADR-RES, in the assay on OVCAR-5, in the assay with OVCAR-8 and in the assay with SF-539 was > 100 µM (inactive) in each case. The GI50 in the assay on SK-MEL-28, in the assay on SK-MEL-5, in the assay with SK-OV-3, in the assay on SNB-19, with SW-620 and in the assay with U-251 was > 100 µM (inactive) each time. Besides, the GI50 with UACC-257 was > 100 µM (inactive).
